Key:
[1] = target: human GPR119 (Homo sapiens (Human), UniProt Q8TDV5); experiment: AlphaScreen cAMP assay in Min-6/hGPR119 cells (GPR119 activation, intracellular cAMP); assay type: cell-based; conditions: MIN6 cells stably transfected with human GPR119; 45 minutes' incubation at RT; AlphaScreen cAMP Assay Kit
Procedure, shortened: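 cAMP quantified by AlphaScreen after 45 min room-temperature compound exposure in HEPES/bicarbonate buffer, pH 7.4, containing 0.5 mM IBMX, 0.1% BSA and 1% DMSO final. Cells were Min-6 stably transfected with human GPR119, seeded 24 h beforehand.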

Chain of human GPR119 (Q8TDV5 whole entry): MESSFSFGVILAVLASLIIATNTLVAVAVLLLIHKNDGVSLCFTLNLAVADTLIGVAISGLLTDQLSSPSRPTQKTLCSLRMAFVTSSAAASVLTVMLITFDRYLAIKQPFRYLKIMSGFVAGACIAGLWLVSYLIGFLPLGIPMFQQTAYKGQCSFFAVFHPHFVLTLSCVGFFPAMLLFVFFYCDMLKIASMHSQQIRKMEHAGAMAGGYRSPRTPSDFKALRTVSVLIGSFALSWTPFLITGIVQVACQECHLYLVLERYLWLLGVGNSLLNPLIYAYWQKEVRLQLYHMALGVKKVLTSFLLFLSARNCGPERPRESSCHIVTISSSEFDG

SMILES | EC50 [1] | melting point
CC1CC(=O)NN=C1c1ccc2nc(N3CCOCC3)oc2c1 (centres unmarked) [Example 116, 5-methyl-6-(2-morpholine-1-yl-benzoxazol-6-yl)-4,5-dihydro-2H-pyridazin-3-one] | 3450 nM | 209 °C
CC1CC(=O)NN=C1c1ccc2nc(N3CCNCC3)oc2c1 (centres unmarked) [Example 117, 5-methyl-6-(2-piperazin-1-yl-benzoxazol-6-yl)-4,5-dihydro-2H-pyridazin-3-one] | 9390 nM | 213 °C
CC1CC(=O)NN=C1c1ccc2nc(-c3ccc(Cl)nc3Cl)oc2c1 (centres unmarked) [Example 120, 6-[2-(2,6-dichloro-pyridin-3-yl)-benzoxazol-6-yl]-5-methyl-4,5-dihydro-2H-pyridazin-3-one] | 1340 nM | 268 °C
CC1CC(=O)NN=C1c1ccc2nc(-c3ccc(N4CCOCC4)nc3Cl)oc2c1 (centres unmarked) [Example 121, 6-[2-(2-chloro-6-morpholin-4-yl-pyridin-3-yl)-benzoxazol-6-yl]-5-methyl-4,5-dihydro-2H-pyridazin-3-one] | 379 nM | 236 °C
